PubChem BioAssay (NCI)
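Values below derive from 48-hour exposures of cells grown in 96-well plates, with endpoints linearly interpolated between the two concentrations bracketing the appropriate inhibition level. GI50 = concentration required for 50% inhibition of growth. TGI denotes the concentration required for complete inhibition of growth.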

Experiments:
Experiment in all cases: inhibition of tumour cell growth, NCI panel, 48 h
SNB-19 CNS = test system: SNB-19 CNS
MCF7 breast = test system: MCF7 breast
RXF 393 renal = test system: RXF 393 renal
BT-549 breast = test system: BT-549 breast
HOP-62 NSCLC = test system: HOP-62 NSCLC
SR leukemia = test system: SR leukemia
OVCAR-3 ovarian = test system: OVCAR-3 ovarian
UACC-62 melanoma = test system: UACC-62 melanoma
HCT-15 colon = test system: HCT-15 colon
DU-145 prostate = test system: DU-145 prostate
COLO 205 colon = test system: COLO 205 colon
HOP-92 NSCLC = test system: HOP-92 NSCLC
OVCAR-4 ovarian = test system: OVCAR-4 ovarian
SNB-75 CNS = test system: SNB-75 CNS
MDA-MB-435 = test system: MDA-MB-435
ACHN renal = test system: ACHN renal
CAKI-1 renal = test system: CAKI-1 renal
K-562 leukemia = test system: K-562 leukemia
UACC-257 melanoma = test system: UACC-257 melanoma
SF-268 CNS = test system: SF-268 CNS
SW-620 colon = test system: SW-620 colon
OVCAR-8 ovarian = test system: OVCAR-8 ovarian
KM12 colon = test system: KM12 colon
MALME-3M melanoma = test system: MALME-3M melanoma
CCRF-CEM leukemia = test system: CCRF-CEM leukemia
SN12C renal = test system: SN12C renal
TK-10 renal = test system: TK-10 renal
PC-3 prostate = test system: PC-3 prostate
SK-MEL-28 melanoma = test system: SK-MEL-28 melanoma
MOLT-4 leukemia = test system: MOLT-4 leukemia
HCT-116 colon = test system: HCT-116 colon
SF-295 CNS = test system: SF-295 CNS
NCI/ADR-RES ovarian = test system: NCI/ADR-RES ovarian
T-47D breast = test system: T-47D breast
NCI-H460 lung = test system: NCI-H460 lung
OVCAR-5 ovarian = test system: OVCAR-5 ovarian
U251 CNS = test system: U251 CNS
RPMI-8226 leukemia = test system: RPMI-8226 leukemia
SK-MEL-5 melanoma = test system: SK-MEL-5 melanoma
HT29 colon = test system: HT29 colon
HS 578T breast = test system: HS 578T breast
NCI-H23 lung = test system: NCI-H23 lung
NCI-H226 lung = test system: NCI-H226 lung
M14 melanoma = test system: M14 melanoma
A498 renal = test system: A498 renal
SF-539 CNS = test system: SF-539 CNS
HCC-2998 colon = test system: HCC-2998 colon
EKVX NSCLC = test system: EKVX NSCLC
LOX IMVI melanoma = test system: LOX IMVI melanoma
786-0 renal = test system: 786-0 renal
SK-OV-3 ovarian = test system: SK-OV-3 ovarian
A549 NSCLC = test system: A549 NSCLC
MDA-MB-231 breast = test system: MDA-MB-231 breast
HL-60(TB) leukemia = test system: HL-60(TB) leukemia

Question: Which GI50 (SNB-19 CNS) does the source give for `CCOC(=O)C1=C(C)N(c2ccc(OC)cc2)C2(O)C=CC(=O)C3C(=O)N(c4ccccc4)C(=O)C132` (stereo not drawn) here?
Answer: 4.74 µM

Question: What about the TGI (SNB-19 CNS) of the same compound?
Answer: 16.8 µM

Question: What about the GI50 (MCF7 breast) of the same compound?
Answer: 2600 nM

Question: What about the TGI (MCF7 breast) of the same compound?
Answer: 11.1 µM

Question: And the GI50 (RXF 393 renal)?
Answer: 1810 nM

Question: What about the TGI (RXF 393 renal) of the same compound?
Answer: 3.42 µM

Question: What about the GI50 (BT-549 breast) of the same compound?
Answer: 1930 nM

Question: And the TGI (BT-549 breast)?
Answer: 4.15 µM

Question: What about the GI50 (HOP-62 NSCLC) of the same compound?
Answer: 3.72 µM

Question: What about the TGI (HOP-62 NSCLC) of the same compound?
Answer: 10.3 µM

Question: What about the GI50 (SR leukemia) of the same compound?
Answer: 1590 nM

Question: What about the TGI (SR leukemia) of the same compound?
Answer: 5.26 µM

Question: What about the GI50 (OVCAR-3 ovarian) of the same compound?
Answer: 1890 nM

Question: What about the TGI (OVCAR-3 ovarian) of the same compound?
Answer: 3.66 µM

Question: What about the GI50 (UACC-62 melanoma) of the same compound?
Answer: 2410 nM

Question: And the TGI (UACC-62 melanoma)?
Answer: 5.47 µM

Question: And the GI50 (HCT-15 colon)?
Answer: 1950 nM

Question: And the TGI (HCT-15 colon)?
Answer: 6.5 µM

Question: And the GI50 (DU-145 prostate)?
Answer: 1820 nM

Question: What about the TGI (DU-145 prostate) of the same compound?
Answer: 4.7 µM

Question: And the GI50 (COLO 205 colon)?
Answer: 1900 nM

Question: And the TGI (COLO 205 colon)?
Answer: 3.83 µM

Question: What about the GI50 (HOP-92 NSCLC) of the same compound?
Answer: 2780 nM

Question: And the TGI (HOP-92 NSCLC)?
Answer: 7.97 µM

Question: What about the GI50 (OVCAR-4 ovarian) of the same compound?
Answer: 2210 nM

Question: And the TGI (OVCAR-4 ovarian)?
Answer: 5.89 µM

Question: What about the GI50 (SNB-75 CNS) of the same compound?
Answer: 4.16 µM

Question: What about the TGI (SNB-75 CNS) of the same compound?
Answer: 13.8 µM

Question: And the GI50 (MDA-MB-435)?
Answer: 2720 nM

Question: What about the TGI (MDA-MB-435) of the same compound?
Answer: 7.47 µM

Question: What about the GI50 (ACHN renal) of the same compound?
Answer: 1940 nM

Question: What about the TGI (ACHN renal) of the same compound?
Answer: 3.93 µM

Question: And the GI50 (CAKI-1 renal)?
Answer: 3.52 µM

Question: What about the TGI (CAKI-1 renal) of the same compound?
Answer: 10.1 µM

Question: And the GI50 (K-562 leukemia)?
Answer: 2680 nM

Question: What about the TGI (K-562 leukemia) of the same compound?
Answer: > 100 µM

Question: What about the GI50 (UACC-257 melanoma) of the same compound?
Answer: 2780 nM

Question: And the TGI (UACC-257 melanoma)?
Answer: 11 µM

Question: What about the GI50 (SF-268 CNS) of the same compound?
Answer: 3.51 µM

Question: And the TGI (SF-268 CNS)?
Answer: 18.4 µM

Question: And the GI50 (SW-620 colon)?
Answer: 1880 nM

Question: And the TGI (SW-620 colon)?
Answer: 3.83 µM

Question: What about the GI50 (OVCAR-8 ovarian) of the same compound?
Answer: 3.58 µM

Question: And the TGI (OVCAR-8 ovarian)?
Answer: 17.3 µM

Question: What about the GI50 (KM12 colon) of the same compound?
Answer: 1840 nM

Question: What about the TGI (KM12 colon) of the same compound?
Answer: 3.41 µM

Question: What about the GI50 (MALME-3M melanoma) of the same compound?
Answer: 2040 nM

Question: And the TGI (MALME-3M melanoma)?
Answer: 3.83 µM

Question: What about the GI50 (CCRF-CEM leukemia) of the same compound?
Answer: 1670 nM

Question: What about the TGI (CCRF-CEM leukemia) of the same compound?
Answer: 13 µM

Question: What about the GI50 (SN12C renal) of the same compound?
Answer: 4.09 µM

Question: And the TGI (SN12C renal)?
Answer: 12.5 µM

Question: What about the GI50 (TK-10 renal) of the same compound?
Answer: 3.48 µM

Question: What about the TGI (TK-10 renal) of the same compound?
Answer: 9.05 µM

Question: And the GI50 (PC-3 prostate)?
Answer: 2890 nM

Question: And the TGI (PC-3 prostate)?
Answer: 10.1 µM

Question: What about the GI50 (SK-MEL-28 melanoma) of the same compound?
Answer: 1860 nM

Question: And the TGI (SK-MEL-28 melanoma)?
Answer: 4.29 µM

Question: And the GI50 (MOLT-4 leukemia)?
Answer: 2420 nM

Question: And the TGI (MOLT-4 leukemia)?
Answer: 5.66 µM

Question: And the GI50 (HCT-116 colon)?
Answer: 1170 nM

Question: And the TGI (HCT-116 colon)?
Answer: 2480 nM

Question: And the GI50 (SF-295 CNS)?
Answer: 15.1 µM

Question: What about the TGI (SF-295 CNS) of the same compound?
Answer: 28.6 µM

Question: What about the GI50 (NCI/ADR-RES ovarian) of the same compound?
Answer: 3.57 µM

Question: And the TGI (NCI/ADR-RES ovarian)?
Answer: 22.3 µM

Question: And the GI50 (T-47D breast)?
Answer: 1790 nM

Question: And the TGI (T-47D breast)?
Answer: 6.08 µM

Question: What about the GI50 (NCI-H460 lung) of the same compound?
Answer: 2080 nM

Question: And the TGI (NCI-H460 lung)?
Answer: 5.25 µM

Question: What about the GI50 (OVCAR-5 ovarian) of the same compound?
Answer: 4.08 µM

Question: What about the TGI (OVCAR-5 ovarian) of the same compound?
Answer: 22.8 µM

Question: What about the GI50 (U251 CNS) of the same compound?
Answer: 2140 nM

Question: And the TGI (U251 CNS)?
Answer: 5.21 µM

Question: And the GI50 (RPMI-8226 leukemia)?
Answer: 1950 nM

Question: And the TGI (RPMI-8226 leukemia)?
Answer: 5.15 µM

Question: What about the GI50 (SK-MEL-5 melanoma) of the same compound?
Answer: 1510 nM

Question: And the TGI (SK-MEL-5 melanoma)?
Answer: 3.05 µM

Question: And the GI50 (HT29 colon)?
Answer: 2040 nM

Question: What about the TGI (HT29 colon) of the same compound?
Answer: 3.75 µM

Question: What about the GI50 (HS 578T breast) of the same compound?
Answer: 3.89 µM

Question: What about the TGI (HS 578T breast) of the same compound?
Answer: 29.9 µM

Question: And the GI50 (NCI-H23 lung)?
Answer: 2340 nM

Question: What about the TGI (NCI-H23 lung) of the same compound?
Answer: 6.66 µM

Question: And the GI50 (NCI-H226 lung)?
Answer: 2560 nM

Question: What about the TGI (NCI-H226 lung) of the same compound?
Answer: 5.18 µM

Question: And the GI50 (M14 melanoma)?
Answer: 2200 nM

Question: What about the TGI (M14 melanoma) of the same compound?
Answer: 5.39 µM

Question: And the GI50 (A498 renal)?
Answer: 11.4 µM

Question: And the TGI (A498 renal)?
Answer: 23.5 µM

Question: What about the GI50 (SF-539 CNS) of the same compound?
Answer: 2270 nM

Question: What about the TGI (SF-539 CNS) of the same compound?
Answer: 5.6 µM

Question: And the GI50 (HCC-2998 colon)?
Answer: 1710 nM

Question: And the TGI (HCC-2998 colon)?
Answer: 3.19 µM

Question: And the GI50 (EKVX NSCLC)?
Answer: 2710 nM

Question: And the TGI (EKVX NSCLC)?
Answer: 12.1 µM

Question: And the GI50 (LOX IMVI melanoma)?
Answer: 1550 nM

Question: And the TGI (LOX IMVI melanoma)?
Answer: 2960 nM

Question: What about the GI50 (786-0 renal) of the same compound?
Answer: 2280 nM

Question: And the TGI (786-0 renal)?
Answer: 5.34 µM

Question: And the GI50 (SK-OV-3 ovarian)?
Answer: 9.92 µM

Question: And the TGI (SK-OV-3 ovarian)?
Answer: 21.7 µM

Question: And the GI50 (A549 NSCLC)?
Answer: 3.29 µM

Question: And the TGI (A549 NSCLC)?
Answer: 13 µM

Question: And the GI50 (MDA-MB-231 breast)?
Answer: 3.19 µM

Question: What about the TGI (MDA-MB-231 breast) of the same compound?
Answer: 7.77 µM

Question: What about the GI50 (HL-60(TB) leukemia) of the same compound?
Answer: 2340 nM

Question: What about the TGI (HL-60(TB) leukemia) of the same compound?
Answer: 5.82 µM
